Values of other authors in patent US20220142894A1, “A PROCESS OF COLORING KERATINOUS MATERIAL COMPRISING THE USE OF AN ORGANOSILICON COMPOUND, AN EFFECT PIGMENT, AND A SEALING REAGENT V” (Henkel AG & Co. KGaA, priority 2019, published 2022).

Conditions: 25° C.

solubility in water (in words) | Compound | solubility in water
– | CCN(Cc1cccc(S(=O)(=O)[O-])c1)c1ccc(C(=C2C=CC(=[N+](CC)Cc3cccc(S(=O)(=O)[O-])c3)C=C2)c2ccccc2S(=O)(=O)[O-])cc1.[Na+].[Na+] [Acid Blue 9] | more than 20 % by weight
– | O=S(=O)([O-])c1ccc(N=Nc2c(O)ccc3ccccc23)cc1.[Na+] [Acid Orange 7, sodium salt of 4-[(2-hydroxy-1-naphthyl)azo]benzene sulphonate] | more than 7 g/L
– | Nc1cc(S(=O)(=O)[O-])cc2cc(S(=O)(=O)[O-])c(N=Nc3ccccc3)c(O)c12.[Na+].[Na+] [Acid Red 33, disodium salt of 5-amino-4-hydroxy-3-(phenylazo)-naphthalene-2,7-disulphonate] | 2500 µg/mL
– | O=C([O-])c1c(Cl)c(Cl)c(Cl)c(Cl)c1-c1c2c(Br)cc(=O)c(Br)c-2oc2c(Br)c(O)cc(Br)c12.O=C([O-])c1c(Cl)c(Cl)c(Cl)c(Cl)c1-c1c2c(Br)cc(=O)c(Br)c-2oc2c(Br)c(O)cc(Br)c12.[Na+].[Na+] [Acid Red 92, disodium salt of 3,4,5,6-tetrachloro-2-(1,4,5,8-tetrabromo-6-hydroxy-3-oxoxanthen-9-yl)benzoic acid] | greater than 10 g/L
highly soluble | O=C([O-])C1=NN(c2ccc(S(=O)(=O)[O-])cc2)C(=O)C1N=Nc1ccc(S(=O)(=O)[O-])cc1.[Na+].[Na+].[Na+] (centres unmarked) [Acid Yellow 23, trisodium salt of 4,5-dihydro-5-oxo-1-(4-sulfophenyl)-4-((4-sulfophenyl)azo)-1H-pyrazole-3-carboxylic acid] | –
